The results in this text go back to ChEMBL document CHEMBL1201862, “PubChem BioAssay data set” (2004).

In assay [1] the target is T1, Bcl-2-related protein A1 (Mus musculus, UniProt Q07440).
T1 sequence (Q07440 whole entry): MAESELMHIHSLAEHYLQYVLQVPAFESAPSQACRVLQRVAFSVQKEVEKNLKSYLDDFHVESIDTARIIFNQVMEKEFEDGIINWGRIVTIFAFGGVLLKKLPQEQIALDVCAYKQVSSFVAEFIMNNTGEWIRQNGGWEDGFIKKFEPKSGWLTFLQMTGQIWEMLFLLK
As to the kind of experiment: small-molecule antagonists of Bfl-1/BH3 interaction – biochemical, TR-FRET, mouse Bfl-1, confirmation (AID 621).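 Further: TR-FRET binding of GST-Bfl-1 to FITC-labelled Bid peptide via terbium antibody.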 On the technique in general: In TR-FRET formats the signal depends on donor and acceptor labels being close together.

Assay [2] addresses T1, Bcl-2-related protein A1. As to the kind of experiment: Bfl-1 binding inhibitors, SAR follow-up, biochemical, fluorescence polarization (AID 1070).
Assay [3] addresses Glyceraldehyde-3-phosphate dehydrogenase (Homo sapiens, UniProt P04406).
For assay [4], the target named is Ephrin type-A receptor 4 (Mus musculus, UniProt Q03137). As to the kind of experiment: EphA4 ligand-binding antagonists – biochemical, colorimetric, mouse EphA4, primary screen (AID 689). The assay is classed as functional.
Sequence of Ephrin type-A receptor 4 (Q03137 whole entry): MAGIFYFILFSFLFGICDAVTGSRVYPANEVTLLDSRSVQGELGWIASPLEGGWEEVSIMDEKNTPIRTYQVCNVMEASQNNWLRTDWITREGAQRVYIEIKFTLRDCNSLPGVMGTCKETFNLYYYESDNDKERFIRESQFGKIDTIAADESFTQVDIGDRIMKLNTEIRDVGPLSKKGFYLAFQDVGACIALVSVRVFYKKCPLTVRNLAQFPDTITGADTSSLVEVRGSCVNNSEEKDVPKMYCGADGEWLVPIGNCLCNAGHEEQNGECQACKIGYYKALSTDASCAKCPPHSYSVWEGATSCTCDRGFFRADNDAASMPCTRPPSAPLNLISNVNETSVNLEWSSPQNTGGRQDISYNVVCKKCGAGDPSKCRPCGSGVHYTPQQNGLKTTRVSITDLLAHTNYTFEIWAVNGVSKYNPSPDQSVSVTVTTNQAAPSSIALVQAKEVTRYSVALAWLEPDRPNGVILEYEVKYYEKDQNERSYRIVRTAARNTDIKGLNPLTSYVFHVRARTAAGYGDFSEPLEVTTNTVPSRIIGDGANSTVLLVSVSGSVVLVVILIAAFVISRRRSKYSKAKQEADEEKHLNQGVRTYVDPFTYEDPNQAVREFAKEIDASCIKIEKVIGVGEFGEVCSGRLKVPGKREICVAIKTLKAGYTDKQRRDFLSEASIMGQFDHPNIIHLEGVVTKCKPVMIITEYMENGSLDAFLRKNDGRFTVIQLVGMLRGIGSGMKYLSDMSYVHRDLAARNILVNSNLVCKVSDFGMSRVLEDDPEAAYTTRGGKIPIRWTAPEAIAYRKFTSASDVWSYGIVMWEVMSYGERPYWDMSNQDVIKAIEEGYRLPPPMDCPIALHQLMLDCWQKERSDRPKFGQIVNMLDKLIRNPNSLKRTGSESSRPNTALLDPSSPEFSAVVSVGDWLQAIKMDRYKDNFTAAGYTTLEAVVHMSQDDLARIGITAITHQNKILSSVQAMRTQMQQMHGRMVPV
For assay [5], the target named is Cytochrome P450 2D6 (Homo sapiens, UniProt P10635).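 Further: CYP2D6 member of a cytochrome P450 panel assay.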
Sequence of Cytochrome P450 2D6 (P10635 whole entry): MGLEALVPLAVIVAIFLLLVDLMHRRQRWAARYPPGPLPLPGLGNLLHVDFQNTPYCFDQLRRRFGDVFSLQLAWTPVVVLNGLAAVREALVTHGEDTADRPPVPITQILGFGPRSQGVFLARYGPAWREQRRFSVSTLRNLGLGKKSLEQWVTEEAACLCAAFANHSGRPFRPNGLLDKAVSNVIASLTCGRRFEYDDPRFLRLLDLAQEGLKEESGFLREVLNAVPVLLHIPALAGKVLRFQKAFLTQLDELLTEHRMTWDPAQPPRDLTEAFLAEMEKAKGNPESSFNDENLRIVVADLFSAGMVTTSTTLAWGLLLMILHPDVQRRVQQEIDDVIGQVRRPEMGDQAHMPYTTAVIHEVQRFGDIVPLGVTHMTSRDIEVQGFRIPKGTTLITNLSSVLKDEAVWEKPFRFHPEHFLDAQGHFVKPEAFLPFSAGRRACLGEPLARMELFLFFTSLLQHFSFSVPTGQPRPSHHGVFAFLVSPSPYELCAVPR
Assay [6] has as its target T1, Bcl-2-related protein A1. As to the kind of experiment: displacement of Bid BH3 peptide from Bfl-1 – biochemical, fluorescence polarization, FITC-Bid, mouse, primary screen (AID 432).
For assay [7], the target named is E3 ubiquitin-protein ligase Mdm2 (Homo sapiens, UniProt Q00987). The assay can be described thus: MDM2-luc reporter signal enhancers, multi-concentration potency testing, MDM2 ubiquitin-protein ligase inhibitor program, whole-cell format, luminescence detection, 384-well microplate (AID 1394).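 Further: MDM2 E3 inhibitors raise luminescence so EC50 is for signal enhancement.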 The assay is classed as functional.
Sequence of E3 ubiquitin-protein ligase Mdm2 (Q00987 whole entry): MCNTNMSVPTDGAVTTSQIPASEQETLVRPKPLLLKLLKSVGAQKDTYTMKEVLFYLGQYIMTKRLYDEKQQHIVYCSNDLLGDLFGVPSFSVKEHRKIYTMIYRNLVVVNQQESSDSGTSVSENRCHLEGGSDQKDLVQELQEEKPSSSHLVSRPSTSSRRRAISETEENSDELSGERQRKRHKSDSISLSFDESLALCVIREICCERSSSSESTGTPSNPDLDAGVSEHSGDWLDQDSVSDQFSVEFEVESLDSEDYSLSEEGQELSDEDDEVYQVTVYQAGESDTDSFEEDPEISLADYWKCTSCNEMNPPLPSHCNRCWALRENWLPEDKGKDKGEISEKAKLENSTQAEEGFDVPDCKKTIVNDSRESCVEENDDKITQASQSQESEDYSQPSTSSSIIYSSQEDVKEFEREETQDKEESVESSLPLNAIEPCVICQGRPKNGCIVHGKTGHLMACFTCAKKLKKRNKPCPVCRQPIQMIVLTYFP
Assay [8] deals with T2, NADPH oxidase 1 (Homo sapiens, UniProt Q9Y5S8).
T2 sequence (Q9Y5S8 whole entry): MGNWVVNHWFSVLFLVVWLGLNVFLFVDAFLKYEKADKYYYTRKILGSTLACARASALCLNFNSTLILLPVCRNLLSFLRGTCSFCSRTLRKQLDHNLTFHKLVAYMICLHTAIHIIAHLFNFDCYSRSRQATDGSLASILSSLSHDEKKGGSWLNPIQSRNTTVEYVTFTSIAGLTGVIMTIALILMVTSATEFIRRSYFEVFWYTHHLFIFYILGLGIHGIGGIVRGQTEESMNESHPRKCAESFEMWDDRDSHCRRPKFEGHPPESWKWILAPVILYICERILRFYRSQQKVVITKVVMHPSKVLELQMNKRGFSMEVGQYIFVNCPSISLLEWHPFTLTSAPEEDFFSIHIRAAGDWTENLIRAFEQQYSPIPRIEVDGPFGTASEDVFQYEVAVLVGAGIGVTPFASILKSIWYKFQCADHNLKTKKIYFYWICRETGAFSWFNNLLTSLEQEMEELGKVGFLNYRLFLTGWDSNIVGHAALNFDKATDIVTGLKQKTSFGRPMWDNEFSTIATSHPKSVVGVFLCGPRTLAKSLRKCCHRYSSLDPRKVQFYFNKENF
The assay can be described thus: Late-stage luminescence-based cell-based dose response assay to identify inhibitors of NADPH oxidase 1 (NOX1): Synthesized analogs 3. In kind it is functional.

Assay [9] in a line: reduced cellular PGC1a acetyl-lysine signal – cell-based, cherry-picked samples, dose response (AID 720514).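 Further: potency may reflect raised or lowered acetylation signal.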 The assay is classed as functional.
Assay [10] addresses Troponin, cardiac muscle (Homo sapiens, UniProt P19429+P45379+P63316). The assay can be described thus: Fluorescence-based biochemical high throughput dose response assay for activators of the calcium sensitivity of cardiac Regulated Thin Filaments (RTF). [Related pubchem assays (depositor defined):AID493008, AID493018, AID504382, AID504383]. The assay is classed as protein-complex assay.

The target of assay [11] is T3, Fibrinogen beta chain (Homo sapiens, UniProt P02675). As to the kind of experiment: Fluorescence polarization-based biochemical high throughput dose response assay to identify inhibitors that disrupt the binding of a cyclic peptide (Tn7) to the fibrin proteolytic product D-Dimer and fragment E complex [DD(E )]. (In general: In fluorescence polarisation assays a small probe gives low polarisation when free and higher when bound to something large.)
T3 sequence (P02675 whole entry, the tested form may be a part): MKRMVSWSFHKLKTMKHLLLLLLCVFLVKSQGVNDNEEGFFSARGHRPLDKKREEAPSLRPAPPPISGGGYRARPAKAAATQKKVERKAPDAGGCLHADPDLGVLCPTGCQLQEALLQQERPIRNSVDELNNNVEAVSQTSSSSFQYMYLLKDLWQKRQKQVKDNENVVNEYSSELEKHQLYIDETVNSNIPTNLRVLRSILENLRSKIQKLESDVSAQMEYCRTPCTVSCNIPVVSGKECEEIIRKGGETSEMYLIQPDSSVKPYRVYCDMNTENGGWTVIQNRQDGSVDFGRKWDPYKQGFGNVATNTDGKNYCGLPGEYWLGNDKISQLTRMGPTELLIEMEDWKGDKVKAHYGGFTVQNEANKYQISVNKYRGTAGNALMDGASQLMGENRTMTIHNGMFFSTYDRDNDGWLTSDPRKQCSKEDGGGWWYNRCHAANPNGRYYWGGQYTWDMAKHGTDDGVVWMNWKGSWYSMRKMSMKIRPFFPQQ

Assay [12] has as its target T3, Fibrinogen beta chain. As to the kind of experiment: Fluorescence polarization-based biochemical high throughput dose response assay to identify inhibitors that disrupt the binding of a cyclic peptide (Tn6) to the fibrin proteolytic product D-Dimer and fragment E complex [DD(E )].
The test system of assay [13] is Vero. As to the kind of experiment: inhibition of WNV-induced cytopathic effect – cell-based, CPE readout (AID 1621). In kind it is functional. The conditions noted are these: Chlorocebus sabaeus. (In general: Damage to the host cells serves as the signal in cytopathic effect assays.)

The source made the active and inactive calls.

Sequence of Glyceraldehyde-3-phosphate dehydrogenase (P04406 whole entry): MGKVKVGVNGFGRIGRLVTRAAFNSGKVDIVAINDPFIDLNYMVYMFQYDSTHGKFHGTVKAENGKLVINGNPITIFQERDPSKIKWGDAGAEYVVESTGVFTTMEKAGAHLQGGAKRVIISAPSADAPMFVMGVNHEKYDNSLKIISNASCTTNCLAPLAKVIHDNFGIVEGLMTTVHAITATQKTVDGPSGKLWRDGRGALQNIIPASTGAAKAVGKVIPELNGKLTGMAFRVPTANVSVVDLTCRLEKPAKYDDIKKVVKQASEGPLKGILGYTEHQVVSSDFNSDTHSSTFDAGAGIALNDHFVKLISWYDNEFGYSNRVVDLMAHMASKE

As a reminder, the IC50 is the midpoint of a concentration-inhibition curve. Turning to `O=C1C(Cl)=C(N2CCCCC2)C(=O)N1c1ccc(Cl)c(Cl)c1`, the IC50 was 1.3 µM (active) in assay [1], > 100 µM (not active) in assay [2] and > 100 µM (not active) in assay [3].

By AC50 is commonly meant the midpoint of the concentration-response curve, whichever way the signal moves. Regarding `CCSc1nnc(NC(=O)C(C(F)(F)F)C(F)(F)F)s1`, the figures for the IC50 in [1], in [4] and in assay [6] were 2.66 µM (active), 4.1 µM (active) and 2.85 µM (active), respectively. Further, the AC50 in [5] was 25.1 µM (inconclusive).

As usually defined, the EC50 is the concentration needed to bring the measured effect to its halfway point. For the compound `CSc1nsc(/C=C/Nc2ccc(F)cc2)c1C#N`, the EC50 in assay [7] was 2.4 µM (not active).

As to `CN1c2ccc(N)cc2Sc2cc(C(=O)c3ccccc3)ccc21`, the IC50 in assay [8] was 0.201 µM (active).

`CC(=O)Nc1ccc2c(CSc3nncs3)cc(=O)oc2c1`: in assay [9], the AC50 is 26.5 µM (active).

As to `[O-][n+]1c2c([n+]([O-])c3cc(N4CCCC4)c(F)cc31)CCC2`, the EC50 in assay [10] was > 2.65 µM (active). The IC50 was > 83.3 µM (inactive) in assay [11] and 26.1 µM (inactive) in assay [12].

On to `Cc1ccc2cc(C#N)c(N3CCCN(C(S)=NCCCN(C)C)CC3)nc2c1`, for which, in assay [13], the IC50 is 24.4 µM (active).
